Experimental data: patent US20250339443A1, “METHOD FOR TREATING OR PREVENTING CALCIUM RELEASE-ACTIVATED CALCIUM CHANNEL OR DISCOIDIN DOMAIN RECEPTOR 2 RELATED DISORDERS OR CONDITIONS” (LumiSTAR Biotechnology, Inc., priority 2023, published 2025)

Molecular target: CRAC channel (Homo sapiens, UniProt Q96D31)
Assay: CRAC channel activity / SOCE in MRC5
Format: cell-based
Design: endogenous in cells
Details: MRC5, 10 μM pretreatment 45 min
Method: Cells were co-treated with various compounds (10 μM) and TGF-β1 for 24 hours. Following this, cell lysates were harvested, and the protein expression was assessed by Western blot analysis. FIG. 3D depicts the examination of TGF-β1-induced fibronectin deposition and α-SMA expression in HCF treated with 10 μM of DMSO, BTP2, WRG-28, or Av through immunofluorescence staining. The images were captured using a confocal microscope, the Olympus FV-1000. FIG. 3E, FIG. 3F, and FIG. 3G illustrate the assessment of CRAC channel activity in HCF, MRC5, and rat HSC-T6. These cells were pretreated with 10 μM of BTP2, WRG-28, or Av for 45 min. The evaluation included measuring the second peak of each calcium wave and the rate of entry. Each bar within the figure represents the mean value derived from 77 to 91 cells for HCF, 31 to 49 cells for MRC5, and 43 to 94 cells for HSC-T6. In all the graphs, *, **, and *** denote p-values of <0.05, 0.01, and 0.001, respectively.
Cells cultured on a glass-bottom 96 well plate for 48 hours were treated with different compounds (10 μM) and Fura 2-AM (1 μM) simultaneously in a solution containing 145 mM NaCl, 2.8 mM KCl, 2 mM CaCl2, 2 mM MgCl2, 10 mM D-glucose, 10 mM HEPES, pH 7.4 for 40 minutes in the dark. […] All the images were analyzed by using IGOR Pro software. […]

Sequence of CRAC channel (Q96D31 whole entry): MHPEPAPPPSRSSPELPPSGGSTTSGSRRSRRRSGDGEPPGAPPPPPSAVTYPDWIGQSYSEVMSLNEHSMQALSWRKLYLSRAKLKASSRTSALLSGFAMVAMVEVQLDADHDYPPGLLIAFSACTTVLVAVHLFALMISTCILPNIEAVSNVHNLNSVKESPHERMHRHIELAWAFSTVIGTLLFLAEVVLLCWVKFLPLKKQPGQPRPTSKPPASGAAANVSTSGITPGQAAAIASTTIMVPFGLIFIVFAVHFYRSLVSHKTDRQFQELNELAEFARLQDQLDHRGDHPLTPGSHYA

SOCE: notably reduced
SMILES: CCNS(=O)(=O)c1ccc(COc2ccc3nc4ccc(=O)cc-4oc3c2)cc1 [WRG-28]
